The values that follow come from US20230348401A1, “Inhibitors of Glucose-6-phosphate Dehydrogenase and Uses Thereof” (The Trustees of Princeton University, priority 2020, published 2023).

One test has as its target G6PD (Homo sapiens, UniProt P11413). In words: 6-pg levels in HepG2 cells (cellular target engagement). More on the design: endogenous in cells. Particulars: HepG2 cells; read-out: IC50, decrease in 6-pg levels. The format is cell-based. The text has this:
Direct Monitoring of 6-pg in cells. The metabolite 6-phosphogluconate (6-pg) is a downstream product of the G6PD reaction, and is believed to be made predominantly by the oxidative pentose phosphate pathway in mammalian cells. Though the direct product of G6PD is the lactone form of 6-pg (6-phosphogluconolactone), this product is believed to readily hydrolyze to 6-pg under cellular conditions, and is therefore difficult to detect. Thus, to directly monitor the G6PD reaction, methods for measuring 6-pg levels in intact cells were developed.
To explore this possibility further, more specific assays for evaluating G6PD cellular target engagement were developed. […] These included the hepatocellular carcinoma line, HepG2, which was selected as the primary cell for direct 6-pg monitoring. Consistent with the oxPPP being the primary source of 6-pg in these cells, G6PD knockout led to nearly complete 6-pg loss (FIGS. 1B and 1C).
For analysis of intracellular metabolites by LC-MS, adherent cell lines were plated and grown to 80% confluency in 6-well plates. At the start of an experiment, the appropriate media was added to cells, which included isotope tracers and/or chemical inhibitors as described. Cells were incubated at 37° C. at 5% CO2 for 2 hours (unless otherwise noted). For all experiments involving small molecule agents, DMSO concentrations were <0.2%. After 2 hours, media was removed by aspiration and metabolome extraction was performed (without any wash steps) by the addition of 800 µL of ice cold solvent (40:40:20 acetonitrile:methanol:water + 0.5% formic acid). After a 1-minute incubation on ice, the extract was neutralized by the addition of NH4HCO3 (15% w/v). The samples were incubated at -20° C. for approximately 30 minutes, at which point the wells were scraped and the extract transferred to Eppendorf tubes and centrifuged (15 minutes, 16000 rpm, 4° C.). The resulting supernatant was frozen on dry ice and kept at -80° C. until LC-MS analysis.
Metabolites were analyzed using a quadrupole-orbitrap mass spectrometer (Q Exactive Plus, Thermo Fisher Scientific, Waltham, MA), coupled to hydrophilic interaction chromatography (HILIC) with LC separation on a XBridge BEH Amide column (Waters), or a stand-alone orbitrap (Thermo-Fisher Exactive) coupled to reversed-phase ion-pairing chromatography with LC separation on a HSS-T3 column (Waters). Both mass spectrometers were operating in negative ion mode and were coupled to their respective liquid chromatography methods via electrospray-ionization. Detailed analytical conditions have been previously described.

Test [1] concerns active CD8+ or CD4+ cells. In words: Intracellular cytokines in active T cells after PMA and ionomycin. The format is cell-based, mouse. As for the experimental part:
To analyze intracellular cytokines, active T cells were re-stimulated with PMA (20 ng/ml) and ionomycin (1 µg/ml) in the presence of GolgiStop and increasing concentrations of G6PDi-1. After a 6-hour incubation period, cells were collected, washed with PBS and stained with the viability dye Live/Dead Aqua. Cells were then washed with staining buffer and stained for surface markers: CD4 (APC-Cy7, clone RM4-5,), CD8a (PerCP-Cy5.5, clone 53-6.7). Cells were then fixed and permeabilized and stained for intracellular cytokines: IFN-γ (FITC, clone XMG1.2), TNFα (PE-Cyanine7, clone MP6-XT22) and IL-2 (PE, clone JES6-5H4). To analyze intracellular cytokines, mature macrophages were stimulated with LPS (100 ng/mL) + IFNγ (20 ng/mL) in the presence of GolgiStop and increasing concentrations of G6PDi-1. After a 6-hour incubation period, cells were collected, washed with PBS and stained with the viability dye Live/Dead Aqua. Cells were then fixed and permeabilized and stained for intracellular cytokines: TNFα (PE-Cyanine7, clone MP6-XT22) and IL-10 (V450, clone JES5-16E3).

Chain of G6PD (P11413 whole entry): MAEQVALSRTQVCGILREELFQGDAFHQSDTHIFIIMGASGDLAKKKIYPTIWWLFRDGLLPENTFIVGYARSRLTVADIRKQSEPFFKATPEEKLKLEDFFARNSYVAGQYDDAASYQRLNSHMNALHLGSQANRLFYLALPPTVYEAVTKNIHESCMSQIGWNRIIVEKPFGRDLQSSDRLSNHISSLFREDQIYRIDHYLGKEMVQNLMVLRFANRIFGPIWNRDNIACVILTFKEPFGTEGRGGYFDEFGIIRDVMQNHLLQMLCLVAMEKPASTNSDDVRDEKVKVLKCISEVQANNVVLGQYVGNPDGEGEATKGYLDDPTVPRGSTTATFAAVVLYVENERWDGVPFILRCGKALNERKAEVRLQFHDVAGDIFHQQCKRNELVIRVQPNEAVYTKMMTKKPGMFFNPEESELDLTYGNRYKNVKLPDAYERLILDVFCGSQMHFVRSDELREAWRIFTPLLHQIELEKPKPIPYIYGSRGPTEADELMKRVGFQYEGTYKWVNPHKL

As for `N#Cc1cc(Nc2ncc3c(n2)CCCCC3=O)cs1` [Compound 2, 4-([5-oxo-6H,7H,8H,9H-cyclohepta[d]pyrimidin-2-yl]amino)thiophene-2-carbonitrile], the IC50 (commonly the concentration that gives 50% inhibition) on G6PD is around 13 µM. Besides, the cytokine production entry in test [1] (CD8+ and CD4+ T cells, PMA and ionomycin, 6 h) is reported as “blocked cytokine production”. For the same compound, the “IFNγ mRNA” value in test [1] (active CD8+ T cells) is “decreased”.
